Results published in the supplement of paper PMC10307832.

Key:
Experiment in all cases: relative viability (nuclei count vs DMSO), 5 days (fraction); higher = more cells survive
[1] = compound: C[As](C)SC[C@H](NC(=O)CC[C@H](N)C(=O)O)C(=O)NCC(=O)O [Darinaparsin] + O=C(CCCCCCC(=O)Nc1ccccc1)NO [Vorinostat] (partner 1 µM)
Method in brief: (§1)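 For relative viability, nuclei counts in treated wells were divided by those in vehicle wells. Lung cancer cell lines had been pin-tool dosed in 1536-well plates the day after seeding and cultured for 5 days, then fixed and stained in one step (final 0.05% Triton X-100, 1% formaldehyde, 1 ug/ml Hoechst) and imaged at 4×. Doses were one drug alone or a fixed anchor-drug dose plus five library-drug doses (not always all listed) in √10 steps, and values are duplicate-plate medians.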

QS11 + Crizotinib = compound: C1CC2=C(C1)C=C(C=C2)OC3=NC(=C4C(=N3)N(C=N4)CC5=CC=C(C=C5)C6=CC=CC=C6)N[C@@H](CC7=CC=CC=C7)CO [QS11] + C[C@@H](Oc1cc(-c2cnn(C3CCNCC3)c2)cnc1N)c1c(Cl)ccc(F)c1Cl [Crizotinib] (partner 1 µM)
Method in brief: as §1

AZ628 + Palbociclib = compound: CC1=C(C=C(C=C1)NC(=O)C2=CC(=CC=C2)C(C)(C)C#N)NC3=CC4=C(C=C3)N=CN(C4=O)C [AZ628] + CC(=O)c1c(C)c2cnc(Nc3ccc(N4CCNCC4)cn3)nc2n(C2CCCC2)c1=O [Palbociclib] (partner 0.5 µM)
Method in brief: as §1

Cell Line	relative viability ([1]; first compound 0.08 µM)	relative viability ([1]; first compound 0.8 µM)	relative viability ([1]; first compound 2.53 µM)	relative viability ([1]; first compound 8 µM)	relative viability (QS11 + Crizotinib; first compound 0.08 µM)	relative viability (QS11 + Crizotinib; first compound 0.253 µM)	relative viability (QS11 + Crizotinib; first compound 0.8 µM)	relative viability (QS11 + Crizotinib; first compound 2.53 µM)	relative viability (QS11 + Crizotinib; first compound 8 µM)	relative viability (AZ628 + Palbociclib; first compound 0.08 µM)	relative viability (AZ628 + Palbociclib; first compound 0.253 µM)	relative viability (AZ628 + Palbociclib; first compound 0.8 µM)	relative viability (AZ628 + Palbociclib; first compound 2.53 µM)	relative viability (AZ628 + Palbociclib; first compound 8 µM)
NCI-H647	0.608	0.751	0.539	0.572	1.25	1.3	0.937	0.992	0.706	0.493	0.43	0.322	0.357	0.289
NCI-H1915	0.502	0.468	0.485	0.579	0.926	1.13		0.824	0.815	0.398	0.392	0.316	0.316	0.205
201T	1.03	0.905	0.917	1.14	1.04	1.07	0.778	1.03	0.947	0.368	0.358	0.381	0.39	0.366
NCI-H3122	1.18	1.22	0.927	1.36	0.25	0.3	0.313	0.436	0.616	0.159	0.144	0.142	0.144	0.137
NCI-H2170	0.967	0.694	0.676	1.17	1.32	1.1	1.02	1.12	1.51	0.413	0.349	0.381	0.418	0.424
HCC-78	0.487	0.422	0.465	0.43	0.326	0.342	0.289	0.325	0.331	0.478	0.454	0.516	0.53	0.449
HARA	0.582	0.532	0.575	0.621	1.11	1.1		1.1	1.04	0.216	0.3	0.223	0.275	0.222
NCI-H2347	0.477	0.541	0.679	0.718	0.683	0.645	0.671	0.501	0.76	0.468	0.352	0.266	0.403	0.344
NCI-H1437	0.907	0.854	0.911	1.06	0.99	1.04	0.862	0.747	0.744	0.317	0.297	0.274	0.425	0.379
LXF-289	0.775	0.788	0.828	0.779	0.814	0.807	0.678	0.687	0.617	0.617	0.658	0.592	0.621	0.44
LU99A	0.477	0.47	0.524	0.455	0.554	0.586	0.544	0.446	0.385	0.366	0.368	0.381	0.442	0.369
NCI-H358	0.744	0.636	0.594	0.745	0.723	0.525	0.457	0.402	0.379	0.126	0.131	0.136	0.142	0.123
NCI-H1666	1.2	0.899	1.18	1.08	0.995	0.808	0.668	0.52	0.432	0.678	0.666	0.683	0.71	0.685
LOU-NH91	0.937	0.885	0.86	0.969	0.713	0.709		0.694	0.744	0.535	0.526	0.547	0.557	0.539
RERF-LC-KJ	0.686	0.742	0.563	0.723	0.467	0.906	0.847	0.769	0.759	1.07	1.09	0.994	1.13	0.843
NCI-H2085	0.73	0.732	0.827	0.764	0.907	0.95	0.84	0.776	0.802	0.478	0.445	0.496	0.493	0.43
HCC-366	0.454		0.339	0.436	0.565	0.542		0.292	0.324	0.383	0.352	0.328	0.445	0.163

Cell Line	relative viability ([1]; first compound 0.08 µM)	relative viability ([1]; first compound 0.8 µM)	relative viability ([1]; first compound 2.53 µM)	relative viability ([1]; first compound 8 µM)	relative viability (QS11 + Crizotinib; first compound 0.08 µM)	relative viability (QS11 + Crizotinib; first compound 0.253 µM)	relative viability (QS11 + Crizotinib; first compound 0.8 µM)	relative viability (QS11 + Crizotinib; first compound 2.53 µM)	relative viability (QS11 + Crizotinib; first compound 8 µM)	relative viability (AZ628 + Palbociclib; first compound 0.08 µM)	relative viability (AZ628 + Palbociclib; first compound 0.253 µM)	relative viability (AZ628 + Palbociclib; first compound 0.8 µM)	relative viability (AZ628 + Palbociclib; first compound 2.53 µM)	relative viability (AZ628 + Palbociclib; first compound 8 µM)
NCI-H2126	0.77	0.687	0.743	0.708	1.05	1	0.855	0.897	0.758	0.351	0.325	0.323	0.383	0.32
EMC-BAC-2	0.554	0.417	0.546	0.42	0.892	0.75	0.529	0.741	0.541	0.521	0.55	0.535	0.519	0.554
H3255	0.746	0.788	0.745	0.895	0.869	0.973		1.02	0.847	0.284	0.297	0.309	0.326	0.328
NCI-H838	0.704	0.738	0.728	0.76	0.937	0.788	0.576	0.746	0.761	0.214	0.205	0.203	0.224	0.192
NCI-H2009	0.866	0.717	0.645	0.72	1.02	1.09	0.882	1.03	0.791	0.201	0.177	0.141	0.125	0.174
HCC-15	0.911	0.839	0.851	0.901	0.807	0.927		0.803	0.779	0.708	0.718	0.656	0.677	0.421
CAL-12T	1.09	0.707	0.785	0.931	0.579	0.733	0.626	0.394	0.512	0.473	0.304	0.209	0.232	0.161
COR-L 105	0.908	0.656	0.822	0.932	1.04	0.735	0.616	0.618	0.702	0.368	0.368	0.429	0.344	0.453
BEN	0.572	0.602	0.688	0.65	0.801	1.06	0.978	0.736	1.09	0.487	0.489	0.46	0.51	0.452
NCI-H520	0.737	0.723	0.735	0.785		0.907	0.831	0.587	0.932	0.21	0.224	0.197	0.254	0.199
ChaGo-K-1	0.848	0.788	0.754	0.769		1.24	1.26	0.957	1.23	0.993	0.934	0.892	0.986	1.02
NCI-H2405	1.07	1.02	0.924	1.12	0.822	0.883	0.808	0.88	0.95	0.4	0.4	0.347	0.35	0.353
NCI-H2087	0.932	0.839	0.892	1.14	0.849	0.794	0.65	0.652	0.573	0.194	0.157	0.165	0.149	0.173
NCI-H460	1.35	0.831	0.569	1	1.17	0.868	0.684	0.31	0.177	0.148	0.168	0.147	0.17	0.123
LCLC-103H	0.796	0.713	0.732	0.885	1.01	1.08	0.808	1	1.08	0.478	0.48	0.44	0.314	0.417
NCI-H1650	0.64	0.499	0.628	0.683	0.994	0.843	0.868	0.986	0.894	0.471	0.372	0.335	0.302	0.42
NCI-H441	1.15	0.751	0.847	0.884	0.776	0.847	0.621	0.6	0.707	0.184	0.18	0.147	0.145	0.151
